Test results as given in ChEMBL document CHEMBL1137217, “Further structurally constrained analogues of cis-(6-benzhydrylpiperidin-3-yl)benzylamine with elucidation of bioactive conformation: discovery of 1,4-diazabicyclo[3.3.1]nonane derivatives and evaluation of their biological properties for the monoamine transporters” (J Med Chem, 2004).

Key:
[1] = molecular target: T1, Sodium-dependent dopamine transporter (Rattus norvegicus, UniProt P23977); assay: Inhibition of [3H]WIN-35428 binding to dopamine transporter of rat striatum; type: tissue-based
T1 sequence (P23977 whole entry): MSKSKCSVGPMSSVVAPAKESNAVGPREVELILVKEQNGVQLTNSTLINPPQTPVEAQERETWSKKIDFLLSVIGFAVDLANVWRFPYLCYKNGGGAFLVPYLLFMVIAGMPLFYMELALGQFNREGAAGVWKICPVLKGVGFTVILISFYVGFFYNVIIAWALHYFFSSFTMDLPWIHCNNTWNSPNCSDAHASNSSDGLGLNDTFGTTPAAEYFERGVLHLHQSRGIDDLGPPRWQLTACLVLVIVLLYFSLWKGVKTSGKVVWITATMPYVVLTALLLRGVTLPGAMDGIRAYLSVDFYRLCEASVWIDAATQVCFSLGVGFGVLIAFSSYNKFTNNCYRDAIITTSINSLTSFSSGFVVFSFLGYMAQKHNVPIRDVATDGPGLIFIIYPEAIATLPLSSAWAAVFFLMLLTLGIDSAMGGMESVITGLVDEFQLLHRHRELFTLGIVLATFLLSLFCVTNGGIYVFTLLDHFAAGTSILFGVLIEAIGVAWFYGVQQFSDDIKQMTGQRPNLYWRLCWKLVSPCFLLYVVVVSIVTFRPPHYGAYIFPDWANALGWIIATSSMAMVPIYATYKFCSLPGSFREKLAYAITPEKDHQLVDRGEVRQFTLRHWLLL

[2] = molecular target: Norepinephrine transporter (Rattus norvegicus, UniProt Q9WTR4); assay: Inhibition of [3H]nisoxetine binding to norepinephrine transporter of rat cerebral cortex; type: tissue-based
Norepinephrine transporter, sequence (Q9WTR4 whole entry): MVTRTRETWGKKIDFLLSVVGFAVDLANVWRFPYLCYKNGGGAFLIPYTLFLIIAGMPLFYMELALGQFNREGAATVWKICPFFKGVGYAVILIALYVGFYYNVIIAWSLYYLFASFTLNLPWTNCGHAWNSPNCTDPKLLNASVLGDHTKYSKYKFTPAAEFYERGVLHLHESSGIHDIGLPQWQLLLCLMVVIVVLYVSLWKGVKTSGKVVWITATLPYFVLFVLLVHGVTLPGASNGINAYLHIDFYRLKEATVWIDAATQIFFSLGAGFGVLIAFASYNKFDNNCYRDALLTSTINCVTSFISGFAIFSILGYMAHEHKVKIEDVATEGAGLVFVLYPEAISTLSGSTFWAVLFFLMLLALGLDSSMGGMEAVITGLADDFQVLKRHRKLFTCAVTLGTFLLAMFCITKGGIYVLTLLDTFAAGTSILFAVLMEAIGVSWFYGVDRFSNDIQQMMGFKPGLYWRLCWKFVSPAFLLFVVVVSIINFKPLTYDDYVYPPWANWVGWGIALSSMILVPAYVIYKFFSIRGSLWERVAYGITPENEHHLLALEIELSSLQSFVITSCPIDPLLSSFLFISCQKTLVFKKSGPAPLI

[3] = molecular target: Monoamine transporters; Norepininephrine & dopamine (Rattus norvegicus) (UniProt P23977+Q9WTR4); assay: Relative binding affinity for norepinephrine and dopamine transporter, ratio of IC50; type: protein assay
[4] = molecular target: Sodium-dependent serotonin transporter (Rattus norvegicus, UniProt P31652); assay: Inhibition of [3H]citalopram binding to serotonin transporter of rat cerebral cortex; type: tissue-based
Sodium-dependent serotonin transporter, sequence (P31652 whole entry): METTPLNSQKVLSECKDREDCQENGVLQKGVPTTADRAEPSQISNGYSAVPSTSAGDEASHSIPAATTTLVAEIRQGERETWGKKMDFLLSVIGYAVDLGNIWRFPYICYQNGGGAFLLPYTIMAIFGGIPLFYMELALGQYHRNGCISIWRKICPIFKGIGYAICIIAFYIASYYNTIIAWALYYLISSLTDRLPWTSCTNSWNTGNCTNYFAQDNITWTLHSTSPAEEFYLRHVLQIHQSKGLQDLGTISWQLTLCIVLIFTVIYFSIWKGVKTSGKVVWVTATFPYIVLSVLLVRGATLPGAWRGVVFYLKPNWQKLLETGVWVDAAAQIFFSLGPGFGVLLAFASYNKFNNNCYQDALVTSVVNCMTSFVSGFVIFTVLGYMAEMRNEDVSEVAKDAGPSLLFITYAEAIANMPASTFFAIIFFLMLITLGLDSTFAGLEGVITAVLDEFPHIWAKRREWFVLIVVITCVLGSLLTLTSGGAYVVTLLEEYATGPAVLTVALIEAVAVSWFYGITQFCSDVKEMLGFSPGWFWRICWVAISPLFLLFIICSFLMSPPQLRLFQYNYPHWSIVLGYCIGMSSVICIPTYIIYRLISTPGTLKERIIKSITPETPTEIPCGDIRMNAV

[5] = molecular target: Monoamine transporters; serotonin & dopamine (Rattus norvegicus) (UniProt P31652+P23977); assay: Relative binding affinity for serotonin and dopamine transporters, ratio of IC50; type: protein assay
Monoamine transporters; serotonin & dopamine (Rattus norvegicus), sequence (P23977 whole entry, looked up): as the sequence (P23977 whole entry) above
Monoamine transporters; serotonin & dopamine (Rattus norvegicus), sequence (P31652 whole entry, looked up): as the sequence (P31652 whole entry) above

[6] = molecular target: Sodium-dependent dopamine transporter (Rattus norvegicus) (UniProt P23977); assay: Ratio of IC50 for [3H]DA uptake to and dopamine transporter binding
Sodium-dependent dopamine transporter (Rattus norvegicus), sequence (P23977 whole entry): as the sequence (P23977 whole entry) above

[7] = molecular target: T1, Sodium-dependent dopamine transporter; assay: Concentration required to inhibit [3H]DA (dopamine) uptake into rat striatal synaptosomes; type: functional, subcellular, Brain

CN(Cc1ccc(F)cc1)C1CCC(C(c2ccccc2)c2ccccc2)N(C)C1 (stereo unspecified)
IC50 [1]: 225 nM | IC50 [2]: 7 µM | Selectivity [3]: 31 | IC50 [4]: 2.36 µM | Selectivity [5]: 10

COc1ccc(CN2CCN3C[C@@H]2CC[C@H]3C(c2ccccc2)c2ccccc2)cc1
IC50 [1]: 22.5 nM | IC50 [2]: > 10 µM | Selectivity [3]: > 444 | IC50 [4]: 8.65 µM | Selectivity [6]: 0.8 | IC50 [7]: 18.4 nM | Selectivity [5]: 384

Fc1ccc(CNC2CCC(C(c3ccccc3)c3ccccc3)NC2)cc1 (stereo unspecified)
IC50 [1]: 33.8 nM | IC50 [2]: 1.42 µM | IC50 [7]: 53.8 nM

N#Cc1ccc(CNC2CCC(C(c3ccccc3)c3ccccc3)NC2)cc1 (stereo unspecified)
IC50 [1]: 11.2 nM | IC50 [2]: 1.67 µM | Selectivity [3]: 148 | IC50 [4]: 0.434 µM | Selectivity [6]: 0.8 | IC50 [7]: 9.1 nM | Selectivity [5]: 38

COc1ccc(CN2CCN3C[C@H]2CC[C@@H]3C(c2ccccc2)c2ccccc2)cc1
IC50 [1]: 329 nM | IC50 [2]: > 10 µM | Selectivity [3]: > 30 | IC50 [4]: 6.63 µM | Selectivity [6]: 0.8 | IC50 [7]: 269 nM | Selectivity [5]: 20

COc1ccc(CNC2CCC(C(c3ccccc3)c3ccccc3)NC2)cc1 (stereo unspecified)
IC50 [1]: 47.5 nM | IC50 [2]: 1.11 µM | Selectivity [3]: 23 | IC50 [4]: 1.04 µM | Selectivity [6]: 0.85 | IC50 [7]: 40.5 nM | Selectivity [5]: 22

Fc1ccc(CCN2CCN3CC2CCC3C(c2ccccc2)c2ccccc2)cc1 (stereo unspecified)
IC50 [1]: 565 nM | IC50 [2]: > 10 µM | Selectivity [3]: > 18 | IC50 [4]: 2.55 µM | Selectivity [5]: 4

Fc1ccc(CNC2CCC(C(c3ccccc3)c3ccccc3)N(Cc3ccc(F)cc3)C2)cc1 (stereo unspecified)
IC50 [1]: 1240 nM | IC50 [2]: 12.6 µM | Selectivity [3]: 12 | IC50 [4]: 18.9 µM | Selectivity [5]: 10

CN1CCN2CC1CCC2C(c1ccccc1)c1ccccc1 (stereo unspecified)
IC50 [1]: 4710 nM | IC50 [2]: 60.1 µM | Selectivity [3]: 13 | IC50 [4]: 157 µM | Selectivity [5]: 33

O=S(=O)(Nc1ccc(CN2CCN3CC2CCC3C(c2ccccc2)c2ccccc2)cc1)c1ccc(Cl)cc1 (stereo unspecified)
IC50 [1]: 371 nM | IC50 [2]: 3.48 µM | Selectivity [3]: 9 | IC50 [4]: 4.13 µM | Selectivity [5]: 11
